ChEMBL document CHEMBL1140426, “First structure-activity relationship study on dopamine D3 receptor agents with N-[4-(4-arylpiperazin-1-yl)butyl]arylcarboxamide structure” (J Med Chem, 2005)

What was measured:
D(3) dopamine receptor [1] = molecular target: T1, D(3) dopamine receptor (Homo sapiens, UniProt P35462); test: biochemical
Description: Displacement of [3H]spiroperidol from cloned human dopamine receptor D3 in CHO cell membrane

D(3) dopamine receptor [2] = molecular target: T1, D(3) dopamine receptor
Description: Intrinsic activity against dopamine receptor D3 by Eu-GTP binding assay

T1 sequence (P35462 whole entry): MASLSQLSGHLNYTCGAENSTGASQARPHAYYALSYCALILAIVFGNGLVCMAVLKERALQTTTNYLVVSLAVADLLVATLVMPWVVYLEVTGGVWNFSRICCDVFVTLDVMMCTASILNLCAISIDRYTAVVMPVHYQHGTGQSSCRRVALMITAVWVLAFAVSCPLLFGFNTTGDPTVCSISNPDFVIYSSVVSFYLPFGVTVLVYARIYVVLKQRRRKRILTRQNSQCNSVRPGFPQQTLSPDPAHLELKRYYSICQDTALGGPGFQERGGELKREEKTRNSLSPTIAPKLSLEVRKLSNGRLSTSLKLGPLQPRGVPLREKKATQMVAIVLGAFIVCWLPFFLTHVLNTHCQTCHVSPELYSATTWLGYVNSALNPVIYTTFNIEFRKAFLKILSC

Compound: O=C(NCCCCN1CCN(c2cccc(Cl)c2Cl)CC1)c1cccc2ccccc12
- Ki (D(3) dopamine receptor [1]): 6.9 nM
- EC50 (D(3) dopamine receptor [2]): 60.3 nM

Compound: COc1ccccc1N1CCN(CCCCNC(=O)c2cccc3ccccc23)CC1
- Ki (D(3) dopamine receptor [1]): 32.6 nM

Compound: O=C(NCCCCN1CCN(c2cccc(Cl)c2Cl)CC1)c1ccc2ccccc2c1
- Ki (D(3) dopamine receptor [1]): 7.9 nM

Compound: O=C(NCCCCN1CCN(c2cccc(Cl)c2Cl)CC1)[C@H]1CC[C@@H](c2ccccc2)CC1
- Ki (D(3) dopamine receptor [1]): 10.6 nM
- EC50 (D(3) dopamine receptor [2]): 631 nM

Compound: O=C(NCCCCN1CCN(c2cccc(Cl)c2Cl)CC1)c1ccccc1
- Ki (D(3) dopamine receptor [1]): 11.9 nM
- EC50 (D(3) dopamine receptor [2]): 209 nM

Compound: O=C(NCCCCN1CCN(c2cccc(Cl)c2Cl)CC1)[C@H]1CC[C@H](c2ccccc2)CC1
- Ki (D(3) dopamine receptor [1]): 22.8 nM

Compound: COc1ccccc1N1CCN(CCCCNC(=O)[C@H]2CC[C@@H](c3ccccc3)CC2)CC1
- Ki (D(3) dopamine receptor [1]): 20.6 nM
- EC50 (D(3) dopamine receptor [2]): 1820 nM

Compound: COc1ccccc1N1CCN(CCCCNC(=O)[C@H]2CC[C@H](c3ccccc3)CC2)CC1
- Ki (D(3) dopamine receptor [1]): 3.4 nM

Compound: COc1ccccc1N1CCN(CCCCNC(=O)c2ccc(-c3ccccc3)cc2)CC1
- Ki (D(3) dopamine receptor [1]): 0.3 nM

Compound: O=C(NCCCCN1CCN(c2cccc(Cl)c2Cl)CC1)c1ccc(-c2ccccc2)cc1
- Ki (D(3) dopamine receptor [1]): 1.98 nM

Compound: COc1ccccc1N1CCN(CCCCNC(=O)c2ccc3c(c2)Cc2ccccc2-3)CC1
- Ki (D(3) dopamine receptor [1]): 0.52 nM
- EC50 (D(3) dopamine receptor [2]): 49 nM
